Assay results as given in patent publication US5747239A, “Synthetic peptides specific for the detection of antibodies to HCV, diagnosis of HCV infection and preventions thereof as vaccines” (United Biomedical, Inc., priority 1994, dated 1998).

Columns and labels:
Type in all cases: binding, human
antibodies to HCV [1] = test: Peptide ELISA for relative immunoreactivity, 8 member HCV serum panel (Panel I); settings: NS-3 peptides (Tables 4B-4D), relative to pep3 (279A)
antibodies to HCV [2] = test: EIA of NS-3 peptides before and after pH adjustment
Protocol: Peptides dissolved at 1 mg/mL in H2 O, pH 4, were titrated to pH 11 by addition of diluted NaOH. After 5 min at pH 11, the pH of the peptide solution was brought down to 7.0 using diluted HCl. Immunoreactivity of the peptides thus treated was compared with reactivity prior to pH adjustment (Table 4E). Two-to three-fold increases in A492 nm were seen. Some previously non-reactive serum samples were able to react with pH adjusted peptides. For instance, serum sample 1, which is non-reactive to 261C, has an absorbance of 1401 mA when tested with the corresponding pH adjusted peptide.

antibodies to HCV [3] = test: Envelope/NS-1 peptide ELISA, anti-HCV positive plasmapheresis donors with elevated ALT (Panel III); settings: for % Relative Immunoreactivity: envelope/NS-1 peptides, Panel III (17 samples), peptide 254B as a standard
Protocol: To select a panel of samples with reactivity to peptides from the envelope/NS-1 region, 97 such samples from anti-HCV positive plasmapheresis donors with elevated ALT levels were tested with peptide 254B. […] 17 samples with the greatest reactivity with peptide 254B were chosen to form a third panel (Panel III) to screen for the immunoreactivity of the other 20 peptides from the envelope/NS-1 region. The individual absorbance values of each of the 17 samples on the four peptides with the greatest reactivity, i.e. 255C (pep7), 254B (pep8), 247B (pep9), and 246D (pep10), are listed in Table 8b.

antibodies to HCV [4] = test: Envelope/NS-1 peptide ELISA, samples nonreactive on HCV core (VIIIE) and NS-4 (IIH) peptides
Protocol: In addition to screening on Panel III samples, the envelope/NS-1 peptides were also tested against samples from plasmapheresis donors who had elevated ALT levels but were non-reactive on the HCV from the core (e.g. peptide VIIIE) and NS-4 (e.g. peptide IIH) regions screening EIA. Six of these samples, which may represent early seroconversion samples, were reactive on one or more envelope/NS-1 peptide (Table 8d). The absorbance values on these HCV EIA nonreactive samples are lower than the values found for Panel III samples. In the case of Pep7 and Pep10, their shorter segments, 225B and 246C, respectively, gave greater immunoreactivity, in contrast to the performance on Panel III.

antibodies to HCV [5] = test: Peptide ELISA for relative immunoreactivity, 8 member HCV serum panel (Panel I)
Protocol: As an example to illustrate how relative (%) immunoreactivity for HCV synthetic peptides is measured, wells of 96-well plates are coated for 1 hour at 37° C., with each of the following peptides: IIH, V, VIIIE and pep11 at 5 ug/mL at 100 uL per well in 10 mM NaHCO3 buffer, pH 9.5. The peptide coated wells were then incubated with 250 uL of 3% by weight of gelatin in PBS in 37° C. for 1 hour to block non-specificprotein binding sites, followed by three washes with PBS containing 0.05% by volume of TWEEN 20 and then dried. The test specimens containing a panel of eight well-characterized HCV antibody positive patient sera were diluted with PBS containing 20% by volume normal goat serum, 1% by weight gelatin and 0.05% by volume TWEEN 20 at dilutions of 1:20 volume to volume, respectively. 200 uL of the diluted specimens were added to each of the wells and allowed to react for 15 minutes at 37° C.
The wells were then washed six times with 0.05% by volume TWEEN 20 in PBS in order to remove unbound antibodies. Horseradish peroxidase conjugated goat anti-human IgG was used as a second antibody tracer to bind with the HCV antibody-peptide antigen complex formed in positive wells. 100 uL of peroxidase labeled goat anti-human IgG at a dilution of 1:1800 in 1% by volume normal goat serum, 0.05% by volume TWEEN 20 in PBS was added to each well and incubated at 37° C. for another 15 minutes.
The wells were washed six times with 0.05% by volume TWEEN 20 PBS to remove unbound antibody and reacted with 100 uL of the substrate mixture containing 0.04% by weight orthophenylenediamine (OPD) and 0.12% by volume hydrogen peroxide in sodium citrate buffer, pH 5.0.
This substrate mixture was used to detect the peroxidase label by forming a colored product. Reactions were stopped by the addition of 100 uL of 1.0M H2 SO4 and the A492 mm measured. Results of relative immunoreactivity for each of the peptides obtained from this study are shown in Table A using peptide II H as the reference.

[6] = test system: antibodies to peptide VIIIE; test: Presence of antibodies to peptide VIIIE in sera
[7] = serum sample 1, Ctrl (prior to pH adjustment)
[8] = serum sample 1, pH adj (pH 11 for 5 min, then 7.0)

SVTVPHPNIEEVALSTTGEIPFYGKAIPLEVIKGGRHLIFCHSKKKCDEL [261C]
% Relative Immunoreactivity (antibodies to HCV [1]): 3.2% | relative immunopotency (antibodies to HCV [2]; after pH adjustment, compared with the standard pep3 (279A)): 68.5% | A492 nm (mA) by EIA (antibodies to HCV [2]; [7]): 6 mA | A492 nm (mA) by EIA (antibodies to HCV [2]; [8]): 1401 mA | A492 nm (mA) by EIA (antibodies to HCV [2]; serum sample 2, Ctrl): 5 mA | A492 nm (mA) by EIA (antibodies to HCV [2]; serum sample 2, pH adj): 499 mA | A492 nm (mA) by EIA (antibodies to HCV [2]; serum sample 3, Ctrl): 24 mA | A492 nm (mA) by EIA (antibodies to HCV [2]; serum sample 3, pH adj): 175 mA | A492 nm (mA) by EIA (antibodies to HCV [2]; serum sample 4, Ctrl): 27 mA | A492 nm (mA) by EIA (antibodies to HCV [2]; serum sample 4, pH adj): 351 mA

VRNSTGLYHVTNDCPNSSIVYEAHDAILHTPGCPCVREGNVSRC [255B]
% Relative Immunoreactivity (antibodies to HCV [3]): 18.7% | Absorbance (antibodies to HCV [4]; sample 4): 0.021 | Absorbance (antibodies to HCV [4]; sample 6): 0.012

WHINSTALNCNESLNTGWLAGLIYQHKFNSSGCPERLASC [246D]
Absorbance (antibodies to HCV [3]; Panel III sample 1): 1.085 | Absorbance (antibodies to HCV [3]; Panel III sample 2): 0.068 | Absorbance (antibodies to HCV [3]; Panel III sample 3): 0.090 | Absorbance (antibodies to HCV [3]; Panel III sample 5): 0.077 | Absorbance (antibodies to HCV [3]; Panel III sample 9): 0.334 | Absorbance (antibodies to HCV [3]; Panel III sample 10): 1.488 | Absorbance (antibodies to HCV [3]; Panel III sample 11): 0.045 | Absorbance (antibodies to HCV [3]; Panel III sample 12): 0.408 | Absorbance (antibodies to HCV [3]; Panel III sample 13): 0.451 | Absorbance (antibodies to HCV [3]; Panel III sample 14): 0.037 | Absorbance (antibodies to HCV [3]; Panel III sample 16): 0.810 | Absorbance (antibodies to HCV [3]; Panel III sample 17): 0.111 | % Relative Immunoreactivity (antibodies to HCV [3]): 98.6% | Absorbance (antibodies to HCV [4]; sample 1 (first line, number not given)): 0.068 | Absorbance (antibodies to HCV [4]; sample 2): 0.028 | Absorbance (antibodies to HCV [4]; sample 3): 0.029 | Absorbance (antibodies to HCV [4]; sample 4): 0.049 | Absorbance (antibodies to HCV [4]; sample 5): 0.009 | Absorbance (antibodies to HCV [4]; sample 6): 0.102

B1: TVLDQAETAGARLVVLATATPPGSVTVPHPNIEEVALSTTGEIPFYGKAIPLEVIKGGRHLIFCHSKKKCDEL (peptide)
chain: TVLDQAETAGARLVVLATATPPGSVTVPHPNIEEVALSTTGEIPFYGKAIPLEVIKGGRHLIFCHSKKKCDEL
% Relative Immunoreactivity (antibodies to HCV [1]): 15.8%

B2: LVLNPSVAATLGFGAYMSKAHGIDPNIRTGVRTITTGSPITYSTYGKFLADGGCSGGAYDIIICDECHS (peptide)
chain: LVLNPSVAATLGFGAYMSKAHGIDPNIRTGVRTITTGSPITYSTYGKFLADGGCSGGAYDIIICDECHS
% Relative Immunoreactivity (antibodies to HCV [1]): 11.1% | A492 nm (mA) by EIA (antibodies to HCV [2]; [7]): 210 mA | A492 nm (mA) by EIA (antibodies to HCV [2]; [8]): 591 mA | A492 nm (mA) by EIA (antibodies to HCV [2]; serum sample 2, Ctrl): 37 mA | A492 nm (mA) by EIA (antibodies to HCV [2]; serum sample 2, pH adj): 159 mA | A492 nm (mA) by EIA (antibodies to HCV [2]; serum sample 3, Ctrl): 0 mA | A492 nm (mA) by EIA (antibodies to HCV [2]; serum sample 3, pH adj): 217 mA | A492 nm (mA) by EIA (antibodies to HCV [2]; serum sample 4, Ctrl): 124 mA | A492 nm (mA) by EIA (antibodies to HCV [2]; serum sample 4, pH adj): 311 mA

B3: STIPKPQRKTKRNTNRRPQDVKFPGGGQIVGGVYLLPRRGPRLGVRATRKTSERSQPRGRR (peptide)
peptide: STIPKPQRKTKRNTNRRPQDVKFPGGGQIVGGVYLLPRRGPRLGVRATRKTSERSQPRGRR
A492 nm (antibodies to HCV [5]; Panel I serum No. 1, peptide coated at 5 ug/mL, serum 1:20): 2.745 | A492 nm (antibodies to HCV [5]; Panel I serum No. 2): 2.208 | A492 nm (antibodies to HCV [5]; Panel I serum No. 3): 2.468 | A492 nm (antibodies to HCV [5]; Panel I serum No. 4): 3.032 | A492 nm (antibodies to HCV [5]; Panel I serum No. 5): 0.054 | A492 nm (antibodies to HCV [5]; Panel I serum No. 6): 2.108 | A492 nm (antibodies to HCV [5]; Panel I serum No. 7): 0.730 | A492 nm (antibodies to HCV [5]; Panel I serum No. 8): 3.006 | samples of the HCV serum panel that reacted (antibodies to HCV [5]; Panel I, 8 samples): 7 out of 8 | % Relative Immunoreactivity (antibodies to HCV [5]; Panel I, peptide IIH as the reference): 98% | % Relative Immunoreactivity (antibodies to HCV [5]; capsid peptides, Panel I, relative to VIIIE, coated at 5, 1 and 0.2 μg/mL): 100.0% | A492 nm Total (antibodies to HCV [5]; sum over Panel I No. 1 to 8): 16.351 | antibodies to the peptide present in ([6]; HBsAg positive individuals): 15-20% | antibodies to the peptide present in ([6]; normal controls): 1-2%
